Data on 16 compounds can be found in patent US12473304B2, “Heterocyclic PAD4 inhibitors” (BRISTOL-MYERS SQUIBB COMPANY, priority 2020, dated 2025).

As usually defined, the IC50 is the concentration needed to halve the response being measured.

Chain of human PAD4 (hPAD4) (Q9UM07 whole entry): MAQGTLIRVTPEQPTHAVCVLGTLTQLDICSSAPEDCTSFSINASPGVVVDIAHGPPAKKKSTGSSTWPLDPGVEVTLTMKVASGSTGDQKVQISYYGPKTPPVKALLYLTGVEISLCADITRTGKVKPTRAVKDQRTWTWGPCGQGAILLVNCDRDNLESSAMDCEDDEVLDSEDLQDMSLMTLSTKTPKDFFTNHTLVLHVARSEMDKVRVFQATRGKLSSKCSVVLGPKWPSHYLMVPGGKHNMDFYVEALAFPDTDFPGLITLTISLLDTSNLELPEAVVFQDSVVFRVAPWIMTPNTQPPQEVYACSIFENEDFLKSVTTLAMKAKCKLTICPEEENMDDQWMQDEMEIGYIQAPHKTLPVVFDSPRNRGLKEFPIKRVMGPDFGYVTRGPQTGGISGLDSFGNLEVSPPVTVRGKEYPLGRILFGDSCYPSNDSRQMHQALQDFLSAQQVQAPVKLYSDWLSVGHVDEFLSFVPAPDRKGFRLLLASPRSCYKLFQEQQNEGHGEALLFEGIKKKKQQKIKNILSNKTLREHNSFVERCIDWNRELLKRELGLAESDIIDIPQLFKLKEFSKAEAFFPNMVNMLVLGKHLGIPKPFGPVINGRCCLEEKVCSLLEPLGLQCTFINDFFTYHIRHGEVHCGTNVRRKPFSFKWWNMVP

This experiment has as its target human PAD4 (hPAD4) (Homo sapiens (Human), UniProt Q9UM07). Nature of the experiment: RFMS Human PAD4 Functional Assay 1. In kind it is biochemical. The settings on record: RFMS assay 1; 5 nM hPAD4, 250 μM BAEE substrate, 50 μM calcium, 37° C. The gist of the method:
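Citrullination product read by RapidFire triple-quad MRM against a modified-citrulline internal standard, after TCA stop and 30 min phenyl glyoxal step at 37 °C. Reaction: 250 μM BAEE, 5 nM human PAD4, 90 min at 37 °C, pH 7.5 HEPES buffer with 50 μM calcium and 5 μM TPEN, following 30 min compound–enzyme preincubation (max 50 μM).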
On to `Cc1c(-c2cc3ccc(-c4ccc(O)c(F)c4)nc3n2CC2CC2)nn2cc(C(=O)N3CC4CCC3[C@@H]4N)ccc12` (stereo partly drawn) [Example 67, ((7R)-7-Amino-2-azabicyclo[2.2.1]heptan-2-yl)(2-(1-(cyclopropylmethyl)-6-(3-fluoro-4-hydroxyphenyl)-1H-pyrrolo[2,3-b]pyridin-2-yl)-3-methylpyrazolo[1,5-a]pyridin-6-yl)methanone], for which the IC50 turned out to be 0.023 µM.

As for `COCC(=O)N1CCC(c2cccc3cc(-c4nn5cc(C(=O)N6C[C@H](N)C[C@@H](F)C6)cc(OC)c5c4C)n(CC4CC4)c23)CC1` [Example 405, 1-(4-(2-(6-((3R,5R)-3-Amino-5-fluoropiperidine-1-carbonyl)-4-methoxy-3-methylpyrazolo[1,5-a]pyridin-2-yl)-1-(cyclopropylmethyl)-1H-indol-7-yl)piperidin-1-yl)-2-methoxyethan-1-one], the IC50 turned out to be 0.02 µM.

Take `COc1cc(C(=O)N2C[C@H](N)C[C@@H](F)C2)cn2nc(-c3cc4cccnc4n3CC3CC3)c(C)c12` [Example 14, ((3R,5R)-3-Amino-5-fluoropiperidin-1-yl)(2-(1-(cyclopropylmethyl)-1H-pyrrolo[2,3-b]pyridin-2-yl)-4-methoxy-3-methylpyrazolo[1,5-a]pyridin-6-yl)methanone]: the IC50 is 0.906 µM.

For the compound `Cc1c(-c2cc3ccc(-c4ccc(C(N)=O)c(F)c4)cc3n2CC2CC2)oc2cc(C(=O)N3C[C@H](N)C[C@@H](F)C3)ccc12` [Example 196, 4-(2-(6-((3R,5R)-3-Amino-5-fluoropiperidine-1-carbonyl)-3-methylbenzofuran-2-yl)-1-(cyclopropylmethyl)-1H-indol-6-yl)-2-fluorobenzamide], the 50% inhibitory concentration (IC50) was determined as 0.384 µM.

Turning to `COc1cc(C(=O)N2C[C@H](N)C[C@@H](F)C2)cn2nc(-c3cc4ccc(C5CC5)nc4n3CC3CC3)c(C)c12` [Example 19, ((3R,5R)-3-Amino-5-fluoropiperidin-1-yl)(2-(6-cyclopropyl-1-(cyclopropylmethyl)-1H-pyrrolo[2,3-b]pyridin-2-yl)-4-methoxy-3-methylpyrazolo[1,5-a]pyridin-6-yl)methanone], the IC50 is 0.168 µM.

Regarding `Cc1c(-c2cc3ccc(N4CCOCC4=O)nc3n2CC2CC2)nn2cc(C(=O)N3CC4CCC3[C@@H]4N)cc(F)c12` (stereo partly drawn) [Example 267, 4-(2-{6-[(7R)-7-Amino-2-azabicyclo[2.2.1]heptane-2-carbonyl]-4-fluoro-3-methylpyrazolo[1,5-a]pyridin-2-yl}-1-(cyclopropylmethyl)-1H-pyrrolo[2,3-b]pyridin-6-yl)morpholin-3-one], the IC50 came to 0.05 µM.

As to `COc1cc(C(=O)N2C[C@H](N)C[C@@H](F)C2)cn2nc(-c3cc4ccc(-c5ccc6c(cnn6C)c5)cc4n3CC3CC3)c(C)c12` [Example 219, (3R,5R)-1-{2-[1-(Cyclopropylmethyl)-6-(1-methyl-1H-indazol-5-yl)-1H-indol-2-yl]-4-methoxy-3-methylpyrazolo[1,5-a]pyridine-6-carbonyl}-5-fluoropiperidin-3-amine], the IC50 was 0.46 µM.

With `Cc1c(-c2cc3cccc(C4CCN(C(=O)C5CCCO5)CC4)c3n2CC2CC2)nn2cc(C(=O)N3CCC[C@@H](N)C3)ccc12` (mixture of isomers) [Example 462, ((R)-3-aminopiperidin-1-yl)(2-(1-(cyclopropylmethyl)-7-(1-(tetrahydrofuran-2-carbonyl)piperidin-4-yl)-1H-indol-2-yl)-3-methylpyrazolo[1,5-a]pyridin-6-yl)methanone], the IC50 was 0.03 µM.

For `COc1nc(C(=O)NC[C@H](F)CN)cn2nc(-c3cc4cccnc4n3CC3CC3)c(C)c12` [Example 117, (R)-N-(3-Amino-2-fluoropropyl)-2-(1-(cyclopropylmethyl)-1H-pyrrolo[2,3-b]pyridin-2-yl)-4-methoxy-3-methylpyrazolo[1,5-a]pyrazine-6-carboxamide], the IC50 is 15 µM.

For `Cc1c(-c2cc3cc(F)cc(C4CCN(C(=O)C5CCCCO5)CC4)c3n2CC2CC2)nn2cc(C(=O)N3CCC[C@@H](N)C3)ccc12` (mixture of isomers) [Example 508, ((R)-3-Aminopiperidin-1-yl)(2-(1-(cyclopropylmethyl)-5-fluoro-7-(1-(tetrahydro-2H-pyran-2-carbonyl)piperidin-4-yl)-1H-indol-2-yl)-3-methylpyrazolo[1,5-a]pyridin-6-yl)methanone], the IC50 was determined as 0.04 µM.

As for `COc1cc(C(=O)N2C[C@H](N)C[C@@H](F)C2)cc2oc(-c3cc4ccc(-c5ccc(C(N)=O)c(Cl)c5)cc4n3CC3CC3)c(C)c12` [Example 162, 4-(2-(6-((3R,5R)-3-Amino-5-fluoropiperidine-1-carbonyl)-4-methoxy-3-methylbenzofuran-2-yl)-1-(cyclopropylmethyl)-1H-indol-6-yl)-2-chlorobenzamide], the IC50 is 2.29 µM.

For the compound `Cc1c(-c2cc3ccnc(OCCn4ccnc4C)c3n2CC2CC2)nn2cc(C(=O)N3CCC[C@@H](N)C3)ccc12` [Example 612, (R)-(3-Aminopiperidin-1-yl)(2-(1-(cyclopropylmethyl)-7-(2-(2-methyl-1H-imidazol-1-yl)ethoxy)-1H-pyrrolo[2,3-c]pyridin-2-yl)-3-methylpyrazolo[1,5-a]pyridin-6-yl)methanone], the IC50 turned out to be 2.96 µM.

On to `COc1cc(C(=O)N2C[C@H](N)C[C@@H](F)C2)cn2nc(-c3cc4ccc(-c5ccc(CNS(C)(=O)=O)cc5)cc4n3CC3CC3)c(C)c12` [Example 224, N-{[4-(2-{6-[(3R,5R)-3-Amino-5-fluoropiperidine-1-carbonyl]-4-methoxy-3-methylpyrazolo[1,5-a]pyridin-2-yl}-1-(cyclopropylmethyl)-1H-indol-6-yl)phenyl]methyl}methanesulfonamide], for which the IC50 is 1.07 µM.

For `COc1cc(C(=O)N2CC3CCC2[C@@H]3N)cn2nc(-c3cc4ccnc(OCC5CNC(=O)C5)c4n3CC3CC3)c(C)c12` (mixture of isomers) [Example 608, 4-(((2-(6-((7R)-7-Amino-2-azabicyclo[2.2.1]heptane-2-carbonyl)-4-methoxy-3-methylpyrazolo[1,5-a]pyridin-2-yl)-1-(cyclopropylmethyl)-1H-pyrrolo[2,3-c]pyridin-7-yl)oxy)methyl)pyrrolidin-2-one (mixture of diastereomers)], the IC50 amounted to 0.01 µM.

For the compound `COC(=O)N(C)C1CCN(c2ccc3cc(-c4nn5cc(C(=O)N6CCC[C@@H](N)C6)ccc5c4C)n(CC4CC4)c3c2)CC1` [Example 358, Methyl N-[1-(2-{6-[(3R)-3-aminopiperidine-1-carbonyl]-3-methylpyrazolo[1,5-a]pyridin-2-yl}-1-(cyclopropylmethyl)-1H-indol-6-yl)piperidin-4-yl]-N-methylcarbamate], the IC50 amounted to 0.42 µM.

On to `Cc1c(-c2cc3ccc(-c4ccc(N5CCNC5=O)cc4)nc3n2CC2CC2)nn2cc(C(=O)N3CCC[C@@H](N)C3)cc(F)c12` [Example 280, 1-[4-(2-{6-[(3R)-3-Aminopiperidine-1-carbonyl]-4-fluoro-3-methylpyrazolo[1,5-a]pyridin-2-yl}-1-(cyclopropylmethyl)-1H-pyrrolo[2,3-b]pyridin-6-yl)phenyl]imidazolidin-2-one], for which the IC50 was 1.09 µM.
